From patent US20220195487A1, “Method for Measuring Inhibition of Bacteria by Antibacterial Drug, and Bacterial Counting Device and Method Thereof” (BEIJING XINJI JINNUO MEDICAL EQUIPMENT CO.,LTD., priority 2019, published 2022)
≈ marks a conversion by molar mass, not a printed value.

Key:
Assay type in all cases: cell-based
[1] = system: Staphylococcus aureus (ATCC29213); test: rapid drug susceptibility testing of living cells (live bacteria counting, 2 h); details: for Living cell counts: 2 h
Description: 1.2.1 Preparation of bacterial strains: in accordance with the requirements of the CLSI standards, pick each fresh strains within 24 h with a turbidity of 0.5 McFarland units in the column of strain name in Table 7.
1.2.2 Inoculation: take 100 μL of each bacterial suspension with a turbidity of 0.5 McFarland units and dispense to a 48-well plate with pre-configured gradient antibiotics, 500 μL dispensed in each well.
1.2.3 Incubation and detection: incubate for 2 h at 37° C., and perform live bacteria counting. Record the 24 h routine susceptibility results for comparative analysis.

[2] = system: Staphylococcus aureus (ATCC29213); test: 24 h routine (conventional) drug susceptibility testing by visual observation
[3] = system: Staphylococcus aureus (ATCC29213); test: 2 h susceptibility by resistance bacterial counter; details: Example 3, resistance counting, 2 h at 37° C., 60% of the positive count value as threshold
Description: 2.2.1 Preparation of bacterial strains: In accordance with the requirements of the CLSI standards, pick each fresh strains within 24 h with a turbidity of 0.5 McFarland units in the column of strain name in Table 5;
2.2.2 Inoculation: Take 100 μL of each bacterial suspension with a turbidity of 0.5 McFarland units and dispense to a 48-well plate with pre-configured gradient antibiotics, 500 μL dispensed in each well;
2.2.3 Incubation and detection: Incubate for 2 h at 37° C., and measure with a resistance bacterial counter. Adjust the instrument to its best sensitivity and then count bacteria. Record the 24 h routine susceptibility results for comparative analysis.

CC[C@H]1OC(=O)[C@H](C)[C@@H](O[C@H]2C[C@@](C)(OC)[C@@H](O)[C@H](C)O2)[C@H](C)[C@@H](O[C@@H]2O[C@H](C)C[C@H](N(C)C)[C@H]2O)[C@](C)(O)C[C@@H](C)C(=O)[C@H](C)[C@@H](O)[C@]1(C)O [Erythromycin]
Living cell counts ([1]; 0.03 μg/mL): 5107 cells/μL
Living cell counts ([1]; 0.06 μg/mL): 5078 cells/μL
Living cell counts ([1]; 0.12 μg/mL): 3980 cells/μL
Living cell counts ([1]; 0.25 μg/mL): 889 cells/μL
Living cell counts ([1]; 0.5 μg/mL): 609 cells/μL
Living cell counts ([1]; 1 μg/mL): 598 cells/μL
Living cell counts ([1]; 2 μg/mL): 498 cells/μL
Living cell counts ([1]; 4 μg/mL): 460 cells/μL
Living cell counts ([1]; 8 μg/mL): 446 cells/μL
Living cell counts ([1]; 16 μg/mL): 457 cells/μL
MIC, rapid drug susceptibility testing of living cells ([1]; Example 4, live bacteria counting, 2 h at 37° C.): 0.25 µg/mL
24 hMIC ([2]; Example 3, 24 h routine susceptibility): 0.25
MIC, conventional drug susceptibility testing ([2]; Example 4, 24 h routine susceptibility): 0.25 µg/mL (≈ 0.341 µM)
2 hMIC [3]: 0.5
